Source: US20050192281A1, “Nitrone compounds, prodrugs and pharmaceuticals compositons of the same to treat human disorders” (priority 2003, published 2005)
Where a name gives a salt, the structure may show the parent alone.

Test: Free radical-scavenging/antioxidant assay (DPPH)
Assay type: biochemical
Conditions: 50 μM DPPH in 80% methanol, absorbance at 520 nm, 24 h time point (steady state)
Procedure: Nitrone compounds of the present invention were tested for their free-radical scavenging/antioxidant activity in an in vitro assay that was accepted by those skilled in the art as a model for conditions involving the generation of free radicals. The assay was based on a reaction between a free-radical donor, 2,2-diphenyl-1-picrylhydrazyl (DPPH), and a radical scavenger/antioxidant to be tested for free-radical scavenging activity. Upon donation of the free-radical electron to the purported radical scavenger, the peak vwasible absorbance of DPPH (515-520 nm) decreases so that optical density readings at thwas part of the vwasual spectrum reflect the progression of the following reaction: DPPH•+AH →DPPH—H+A• where AH was a hypothetical radical scavenger/antioxidant. The assay was based on a protocol originally detailed in Brand-Williams, W. et al., 1995, Use of a Free Radical Method to Evaluate Antioxidant Activity, Lebensm. Wwass. Technol., 28:25-30, with further modifications described in L. R. Fukumoto and G. Mazza, 2000, Assessing Antioxidant and Prooxidant Activities of Phenolic Compounds, J. Agric. Food Chem., 48:3597-3604.
The antioxidant assay was performed using Perkin-Elmer 96-well, clear-bottom, black-wall plates (ordered from E & K Scientific Products) and a Tecan Safire absorbance plate reader. The positive controls were Trolox (6-hydroxy-2,5,7,8-tetramethylchromane-2-carboxylic acid, Sigma-Aldrich), BHA (2(3)-tert-butylhydroquinone monomethyl ether, Sigma-Aldrich), PBN (C-(phenyl)-N-(tert-butyl)nitrone, Sigma-Aldrich) and S-PBN (C-(2-sulfophenyl)-N-(tert-butyl)nitrone, sodium salt, prepwered according to E. G. Janzen and R. V. Shetty, 1979, Tetrahedron Lett., 35: 3229-32), and the negative control (i.e., vehicle) was DMSO. In brief, 2 μL of 100×DMSO stock of the desired final concentration of each control or nitrone compound to be tested in the same batch was added to a separate well. To each well was then added 198 μL of a freshly made 50 μM DPPH (Sigma-Aldrich) solution in 80% methanol using a multi-channel pipette. The absorbance was immediately read on the plate reader at 520 nm and thereafter read periodically to assess kinetics until all reactions reached completion (i.e., steady state). Since the steady-state point was 24 h, the assay results were shown from the 24 h time point. The absorbance at 520 nm (OD) was plotted versus the concentrations of the controls and nitrone compounds to assess dose-response and interpolate the EC50 values of the controls and test compounds.

| SMILES | EC50 |
| --- | --- |
| CC(C)(C)/[N+]([O-])=C/c1ccccc1 [PBN, C-(phenyl)-N-(tert-butyl)nitrone, reference compound] | > 1000 µM |
| Cc1ccc(C(C)C)c(OC/C=[N+](\[O-])Cc2ccccc2)c1 [Example 9, N-Benzyl-C-[(2-isopropyl-5-methyl-phenoxy)methyl]nitrone] | 50 to 100 µM |
| COc1ccc(OC/C=[N+](\[O-])C2CCCCC2)cc1 [Example 5, N-Cyclohexyl-C-[(4-methoxy-phenoxy)methyl]nitrone] | < 10 µM |
| CC(C)(C)/[N+]([O-])=C/COc1ccccc1 [Example 1, N-tert-Butyl-C-(phenoxymethyl)nitrone] | 10 to 50 µM |
| COc1ccc(OC/C=[N+](\[O-])C(C)(C)C)cc1 [Example 4, N-tert-Butyl-C-[(4-methoxy-phenoxy)methyl]nitrone] | 10 to 50 µM |
| [O-]/[N+](=C\CCSc1ccccc1)Cc1ccccc1 [Example 21, N-Benzyl-C-2-(phenylsulfanyl)ethyl nitrone] | 10 to 50 µM |
| CC(C)(C)/[N+]([O-])=C/CCOc1ccccn1 [Example 25, N-tert-Butyl-C-2-(pyridin-2-yloxy)ethyl nitrone] | 10 to 50 µM |
| CC(C/C=[N+](\[O-])C(C)(C)C)Sc1ccccc1 (stereo not drawn) [Example 22, N-tert-Butyl-C-2-(phenylsulfanyl)propyl nitrone] | < 10 µM |
| [O-]/[N+](=C\COCc1ccccc1)Cc1ccccc1 [Example 16, N-Benzyl-C-(benzyloxy)methyl nitrone] | 50 to 100 µM |
| [O-]/[N+](=C\COc1ccccn1)C1CCCCC1 [Example 12, N-Cyclohexyl-C-(pyridin-2-yloxy)methyl nitrone] | < 10 µM |
| Cc1ccc(C(C)C)c(OC/C=[N+](\[O-])C2CCCCC2)c1 [Example 8, N-Cyclohexyl-C-[(2-isopropyl-5-methyl-phenoxy)methyl]nitrone] | 10 to 50 µM |
| CC(C/C=[N+](\[O-])Cc1ccccc1)Sc1ccccc1 (stereo not drawn) [Example 24, N-Benzyl-C-2-(phenylsulfanyl)propyl nitrone] | < 10 µM |
| COc1ccc(O)c(C(C)(C)C)c1 [BHA, 2(3)-tert-butylhydroquinone monomethyl ether, reference compound] | 10 to 50 µM |
| Cc1ccc(SC/C=[N+](\[O-])C(C)(C)C)cc1 [Example 10, N-tert-Butyl-C-[(4-methyl-thiophenoxy)methyl]nitrone] | 10 to 50 µM |
| CC(C)(C)/[N+]([O-])=C/CCSc1ccccc1 [Example 20, N-tert-Butyl-C-2-(phenylsulfanyl)ethyl nitrone] | < 10 µM |
| [O-]/[N+](=C\COCc1ccccc1)C1CCCCC1 [Example 15, N-Cyclohexyl-C-(benzyloxy)methyl nitrone] | 10 to 50 µM |
| Cc1c(C)c2c(c(C)c1O)CCC(C)(C(=O)O)O2 (stereo not drawn) [Trolox, 6-hydroxy-2,5,7,8-tetramethylchromane-2-carboxylic acid, reference compound] | < 10 µM |
| Cc1ccc(C(C)C)c(OC/C=[N+](\[O-])C(C)(C)C)c1 [Example 7, N-tert-Butyl-C-[(2-isopropyl-5-methyl-phenoxy)methyl]nitrone] | 50 to 100 µM |
| CC(C)(C)/[N+]([O-])=C/COc1ccccn1 [Example 11, N-tert-Butyl-C-(pyridin-2-yloxy)methyl nitrone] | 10 to 50 µM |
| [O-]/[N+](=C\COc1ccccc1)C1CCCCC1 [Example 2, N-Cyclohexyl-C-(phenoxymethyl)nitrone] | 50 to 100 µM |

Results, then the compound that gave them:

| EC50 | SMILES |
| --- | --- |
| 10 to 50 µM | CC(C)(C)/[N+]([O-])=C/COCc1ccccc1 [Example 26, N-tert-Butyl-C-(benzyloxy)methyl nitrone] |
| > 1000 µM | CC(C)(C)/[N+]([O-])=C/c1ccccc1S(=O)(=O)O [SPBN, C-(2-sulfophenyl)-N-(tert-butyl)nitrone, sodium salt, reference compound] |
| 10 to 50 µM | CC(C)(C)/[N+]([O-])=C/CCOc1ccccc1 [Example 17, N-tert-Butyl-C-2-(phenoxy)ethyl nitrone] |
| < 10 µM | COc1ccc(OC/C=[N+](\[O-])Cc2ccccc2)cc1 [Example 6, N-Benzyl-C-[(4-methoxy-phenoxy)methyl]nitrone] |
| 50 to 100 µM | CC(C)(C)/[N+]([O-])=C/COc1nccc2ccccc12 [Example 14] |
| 10 to 50 µM | [O-]/[N+](=C\COc1ccccc1)Cc1ccccc1 [Example 3, N-Benzyl-C-(phenoxymethyl)nitrone] |
| 100 to 1000 µM | [O-]/[N+](=C\CCOc1ccccc1)Cc1ccccc1 [Example 19, N-Benzyl-C-2-(phenoxy)ethyl nitrone] |
| 10 to 50 µM | CC(C/C=[N+](\[O-])C1CCCCC1)Sc1ccccc1 (stereo not drawn) [Example 23, N-Cyclohexyl-C-2-(phenylsulfanyl)propyl nitrone] |
| > 1000 µM | [O-]/[N+](=C\CCOc1ccccc1)C1CCCCC1 [Example 18, N-Cyclohexyl-C-2-(phenoxy)ethyl nitrone] |
| < 10 µM | [O-]/[N+](=C\COc1ccccn1)Cc1ccccc1 [Example 13, N-Benzyl-C-(pyridin-2-yloxy)methyl nitrone] |
